Experimental data reported in patent US20260297102A1, “HETEROCYCLIC COMPOUNDS AS PARP1 INHIBITORS” (Synnovation Therapeutics, Inc., priority 2023, published 2026).

Molecular target: T1, PARP1 (Homo sapiens, UniProt P09874)
T1 construct: HeLa cells (wide-type with PARP1 gene) were purchased from ATCC; host or cells: HeLa
Test: In-Cell Western Measurement of PARylation in PARP1 WT and Knockout Cells (HeLa_WT)
Format: cell-based
Conditions: HeLa cells (wild-type PARP1); suppression of hydrogen peroxide-induced PARylation; 60 min pre-treatment, 10 mM H2O2 for 15 min; read-out: HeLa_WT_IC50
Procedure: The purpose of this cell-based assay is to measure the potency and selectivity of synthesized PARP inhibitors in suppressing hydrogen peroxide-induced PARylation in cells with and without PARP1 expression. Several cell lines were used in this assay. HeLa cells (wide-type with PARP1 gene) were purchased from ATCC. The HAP1 cell line without the PARP1 gene (#HZGHC003943c006) was purchased from Horizon Discovery. Cells were cultured using complete medium containing 10% fetal bovine serum. One day before the assay, cells were seeded in 96-well plates at the density of 20,000 cells per well in 80 uL complete medium. Compounds were dissolved using DMSO and diluted to the working concentrations using complete medium. Cells were pre-treated with compounds for 60 min and then stimulated with 10 mM hydrogen peroxide for 15 min. After stimulation, cells were immediately fixed using ice-cold methanol for 20 min. After fixation, cells were washed using 1×PBST buffer for 3 times, 5 min each time, to eliminate residual methanol. Cells were blocked for 1 h at room temperature in blocking buffer (10% goat serum, 1% BSA, 0.1% Triton X-100 in PBST). Primary antibody was diluted in blocking buffer at 50 uL per well. Cells were incubated with the primary antibody (Adipogen, AG-20T-0001-M001, 1:300) at 4° C. for 18 h. The wells were then washed using 1×PBST for 3 times, 5 min each time. IRDye® 680RD Goat anti-Mouse IgG (H+L) secondary antibody was diluted at 1/1000 using the diluent buffer and added at 50 uL per well. Secondary antibody incubation was for 1 h at room temperature. Cells were then washed using 1×PBST for 3 times, 5 min each time. The signal was detected and analyzed using LI-COR Odyssey DLx Imaging system. Data were collected and further processed using GraphPad Prism for IC50 estimation.

T1 sequence (P09874 whole entry): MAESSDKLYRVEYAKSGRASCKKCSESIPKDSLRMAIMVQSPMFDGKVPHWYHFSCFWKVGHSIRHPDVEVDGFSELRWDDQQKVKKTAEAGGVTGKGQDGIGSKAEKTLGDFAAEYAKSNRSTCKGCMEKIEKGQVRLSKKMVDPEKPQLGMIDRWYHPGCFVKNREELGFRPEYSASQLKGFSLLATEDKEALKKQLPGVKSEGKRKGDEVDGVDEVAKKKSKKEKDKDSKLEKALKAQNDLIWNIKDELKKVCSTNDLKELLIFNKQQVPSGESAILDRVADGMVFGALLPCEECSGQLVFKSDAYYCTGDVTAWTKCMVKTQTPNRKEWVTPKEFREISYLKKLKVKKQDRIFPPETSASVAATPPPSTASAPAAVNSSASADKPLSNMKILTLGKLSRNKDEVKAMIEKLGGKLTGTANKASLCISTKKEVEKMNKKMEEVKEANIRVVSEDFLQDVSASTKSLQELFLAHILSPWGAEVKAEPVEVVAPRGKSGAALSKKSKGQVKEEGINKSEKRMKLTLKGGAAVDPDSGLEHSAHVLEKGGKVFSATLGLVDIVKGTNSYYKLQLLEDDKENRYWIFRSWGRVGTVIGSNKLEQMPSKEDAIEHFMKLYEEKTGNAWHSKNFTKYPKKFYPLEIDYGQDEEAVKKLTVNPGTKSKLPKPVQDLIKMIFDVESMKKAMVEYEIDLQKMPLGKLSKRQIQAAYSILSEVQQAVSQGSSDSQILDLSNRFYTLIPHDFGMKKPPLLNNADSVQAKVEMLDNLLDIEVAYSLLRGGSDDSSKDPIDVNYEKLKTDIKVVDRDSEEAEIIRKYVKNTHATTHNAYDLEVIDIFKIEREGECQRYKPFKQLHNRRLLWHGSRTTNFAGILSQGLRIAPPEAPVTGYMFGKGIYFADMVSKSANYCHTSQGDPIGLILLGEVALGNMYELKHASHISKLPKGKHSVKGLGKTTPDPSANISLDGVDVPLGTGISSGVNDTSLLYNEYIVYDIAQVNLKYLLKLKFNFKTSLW

IC50	SMILES
≤ 10 nM	CCN1C(=O)Nc2cc(CN3CCN(c4ccc(C(=O)NC5CCC5)nc4C)CC3)cc3ncnc1c23 [Compound 18, N-cyclobutyl-5-(4-((3-ethyl-2-oxo-2,3-dihydro-1H-pyrimido[4,5,6-de]quinazolin-8-yl)methyl)piperazin-1-yl)-6-methylpicolinamide]
≤ 10 nM	CCN1C(=O)Nc2c(F)c(CN3CCN(c4ccc(C(=O)N[C@H]5C[C@H](O)C5)nc4C)CC3)cc3ncnc1c23 [Compound 10, 5-(4-((3-Ethyl-9-fluoro-2-oxo-2,3-dihydro-1H-pyrimido[4,5,6-de]quinazolin-8-yl)methyl)piperazin-1-yl)-N-((1r,3r)-3-hydroxycyclobutyl)-6-methylpicolinamide]
≤ 10 nM	CCN1C(=O)Nc2cc(CN3CCN(c4ccc(C(=O)NCC#N)nc4C)CC3)cc3ncnc1c23 [Compound 15, N-(cyanomethyl)-5-(4-((3-ethyl-2-oxo-2,3-dihydro-1H-pyrimido[4,5,6-de]quinazolin-8-yl)methyl)piperazin-1-yl)-6-methylpicolinamide]
≤ 10 nM	CCN1C(=O)Nc2cc(CN3CCN(c4ccc(C(=O)NCCC#N)nc4C)CC3)cc3ncnc1c23 [Compound 14, N-(2-cyanoethyl)-5-(4-((3-ethyl-2-oxo-2,3-dihydro-1H-pyrimido[4,5,6-de]quinazolin-8-yl)methyl)piperazin-1-yl)-6-methylpicolinamide]
≤ 10 nM	CCN1C(=O)Nc2cc(CN3CCN(c4ccc(C(=O)N[C@H]5C[C@@H](C#N)C5)nc4C)CC3)cc3ncnc1c23 [Compound 25, N-((1s,3s)-3-cyanocyclobutyl)-5-(4-((3-ethyl-2-oxo-2,3-dihydro-1H-pyrimido[4,5,6-de]quinazolin-8-yl)methyl)piperazin-1-yl)-6-methylpicolinamide]
≤ 10 nM	CCN1C(=O)Nc2cc(CN3CCN(c4ccc(C(=O)NC5(CC#N)CC5)nc4C)CC3)cc3ncnc1c23 [Compound 26, N-(1-(cyanomethyl)cyclopropyl)-5-(4-((3-ethyl-2-oxo-2,3-dihydro-1H-pyrimido[4,5,6-de]quinazolin-8-yl)methyl)piperazin-1-yl)-6-methylpicolinamide]
≤ 10 nM	CCN1C(=O)Nc2cc(CN3CCN(c4ccc(C(=O)N[C@H]5C[C@H](C#N)C5)nc4C)CC3)cc3ncnc1c23 [Compound 24, N-((1r,3r)-3-cyanocyclobutyl)-5-(4-((3-ethyl-2-oxo-2,3-dihydro-1H-pyrimido[4,5,6-de]quinazolin-8-yl)methyl)piperazin-1-yl)-6-methylpicolinamide]
≤ 10 nM	CCN1C(=O)Nc2cc(CN3CCN(c4ccc(C(=O)N[C@H]5[C@@H]6COC[C@@H]65)nc4C)CC3)cc3ncnc1c23 [Compound 21, N-((1R,5S,6r)-3-oxabicyclo[3.1.0]hexan-6-yl)-5-(4-((3-ethyl-2-oxo-2,3-dihydro-1H-pyrimido[4,5,6-de]quinazolin-8-yl)methyl)piperazin-1-yl)-6-methylpicolinamide]
≤ 10 nM	CCN1C(=O)Nc2c(F)c(CN3CCN(c4ccc(C(=O)NCC#N)nc4C)CC3)cc3ncnc1c23 [Compound 9, N-(cyanomethyl)-5-(4-((3-ethyl-9-fluoro-2-oxo-2,3-dihydro-1H-pyrimido[4,5,6-de]quinazolin-8-yl)methyl)piperazin-1-yl)-6-methylpicolinamide]
≤ 10 nM	CCN1C(=O)Nc2cc(CN3CCN(c4ccc(C(=O)NC5CC5)nc4C)CC3)cc3ncnc1c23 [Compound 16, N-cyclopropyl-5-(4-((3-ethyl-2-oxo-2,3-dihydro-1H-pyrimido[4,5,6-de]quinazolin-8-yl)methyl)piperazin-1-yl)-6-methylpicolinamide]
10 to 100 nM	Cc1nc(C(=O)NC2CC2)ccc1N1CCN(Cc2cc3nn4c5c3c(c2F)NC(=O)N5CCC4)CC1 [Compound 2, N-Cyclopropyl-5-(4-((7-fluoro-9-oxo-2,3,8,9-tetrahydro-1H-3a,4,8,9a-tetraazacyclopenta[def]phenanthren-6-yl)methyl)piperazin-1-yl)-6-methylpicolinamide]
≤ 10 nM	CNC(=O)c1ccc(N2CCN(Cc3cc4ncc5c6c4c(c3F)NC(=O)N6CCC5)CC2)c(C)n1 [Compound 5, 5-(4-((7-Fluoro-5-oxo-2,3,5,6-tetrahydro-1H-[1,6]naphthyridino[1,8,7-cde]quinazolin-8-yl)methyl)piperazin-1-yl)-N,6-dimethylpicolinamide]
10 to 100 nM	CNC(=O)c1ccc(N2CCN(Cc3cc4nn5c6c4c(c3F)NC(=O)N6CCC5)CC2)c(C)n1 [Compound 1, 5-(4-((7-Fluoro-9-oxo-2,3,8,9-tetrahydro-1H-3a,4,8,9a-tetraazacyclopenta[def]phenanthren-6-yl)methyl)piperazin-1-yl)-N,6-dimethylpicolinamide]
≤ 10 nM	Cc1nc(C(=O)NC2CC2)ccc1N1CCN(Cc2cc3ncc4c5c3c(c2F)NC(=O)N5CCO4)CC1 [Compound 4, N-Cyclopropyl-5-(4-((6-fluoro-4-oxo-2,3,4,5-tetrahydro-1-oxa-3a,5,9-triazapyren-7-yl)methyl)piperazin-1-yl)-6-methylpicolinamide]
≤ 10 nM	CCN1C(=O)Nc2cc(CN3CCN(c4ccc(C(=O)N[C@H]5C[C@H](O)C5)nc4C)CC3)cc3ncnc1c23 [Compound 20, 5-(4-((3-ethyl-2-oxo-2,3-dihydro-1H-pyrimido[4,5,6-de]quinazolin-8-yl)methyl)piperazin-1-yl)-N-((1r,3r)-3-hydroxycyclobutyl)-6-methylpicolinamide]
≤ 10 nM	CCN1C(=O)Nc2cc(CN3CCN(c4ccc(C(=O)NCCO)nc4C)CC3)cc3ncnc1c23 [Compound 13, 5-(4-((3-Ethyl-2-oxo-2,3-dihydro-1H-pyrimido[4,5,6-de]quinazolin-8-yl)methyl)piperazin-1-yl)-N-(2-hydroxyethyl)-6-methylpicolinamide]
≤ 10 nM	Cc1nc(C(=O)NC2CC2)ccc1N1CCN(Cc2cc3ncc4c5c3c(c2F)NC(=O)N5CCC4)CC1 [Compound 6, N-Cyclopropyl-5-(4-((7-fluoro-5-oxo-2,3,5,6-tetrahydro-1H-[1,6]naphthyridino[1,8,7-cde]quinazolin-8-yl)methyl)piperazin-1-yl)-6-methylpicolinamide]
≤ 10 nM	CCN1C(=O)Nc2c(F)c(CN3CCN(c4ccc(C(=O)NCCO)nc4C)CC3)cc3ncnc1c23 [Compound 7, 5-(4-((3-Ethyl-9-fluoro-2-oxo-2,3-dihydro-1H-pyrimido[4,5,6-de]quinazolin-8-yl)methyl)piperazin-1-yl)-N-(2-hydroxyethyl)-6-methylpicolinamide]
≤ 10 nM	CNC(=O)c1ccc(N2CCN(Cc3cc4ncc5c6c4c(c3F)NC(=O)N6CCO5)CC2)c(C)n1 [Compound 3, 5-(4-((6-Fluoro-4-oxo-2,3,4,5-tetrahydro-1-oxa-3a,5,9-triazapyren-7-yl)methyl)piperazin-1-yl)-N,6-dimethylpicolinamide]
≤ 10 nM	CCN1C(=O)Nc2cc(CN3CCN(c4ccc(C(=O)N[C@H]5C[C@@H](O)C5)nc4C)CC3)cc3ncnc1c23 [Compound 19, 5-(4-((3-ethyl-2-oxo-2,3-dihydro-1H-pyrimido[4,5,6-de]quinazolin-8-yl)methyl)piperazin-1-yl)-N-((1s,3s)-3-hydroxycyclobutyl)-6-methylpicolinamide]
≤ 10 nM	CCN1C(=O)Nc2cc(CN3CCN(c4ccc(C(=O)NC5(C#N)CC5)nc4C)CC3)cc3ncnc1c23 [Compound 17, N-(1-cyanocyclopropyl)-5-(4-((3-ethyl-2-oxo-2,3-dihydro-1H-pyrimido[4,5,6-de]quinazolin-8-yl)methyl)piperazin-1-yl)-6-methylpicolinamide]
≤ 10 nM	CCN1C(=O)Nc2c(F)c(CN3CCN(c4ccc(C(=O)NCCC#N)nc4C)CC3)cc3ncnc1c23 [Compound 8, N-(2-cyanoethyl)-5-(4-((3-ethyl-9-fluoro-2-oxo-2,3-dihydro-1H-pyrimido[4,5,6-de]quinazolin-8-yl)methyl)piperazin-1-yl)-6-methylpicolinamide]
